For six compounds, IC50 results are on record in patent US12398121B2 (Nuvation Bio Inc., priority 2018, dated 2025).

The target of one assay is Human recombinant PARP1 (Homo sapiens, UniProt P09874). The assay is described as follows: RBC HotSpot PARP1 radioisotope-based filter binding assay. It counts as biochemical. Particulars: 2.5 nM enzyme, histone H4, 10 μM 32P-NAD+; read-out: PARP1 IC50. On the procedure:
(§1) The following methods are for evaluating the in vitro biology properties of the test articles. • a. RBC HotSpot Poly(ADP-ribose) Polymerases 1 (PARP1) and Poly(ADP-ribose) Polymerases 2 (PARP2) Assays: The assay principle is radioisotope-based filter binding assay where incorporation of radioisotope-labeled NAD^+ into the substrate captured on filter is detected after washout free NAD^+. Data were analyzed using Excel and GraphPad Prism software for IC50 curve fits. Each assay was conducted with PJ34 as a positive control. • i. PARP1 assay: Human recombinant PARP1 at a final concentration of 2.5 nM was combined with histone H4 (20 μM) and test articles at various concentrations in reaction buffer (50 mM Tris-HCL, pH 8.0, 50 mM NaCl, 10 mM MgCl2, 1 mM DTT, 1% DMSO, and 20 μg/mL activated DNA). The solution was inoculated for 20 min at room temperature and the reaction initiated by adding [adenylate-^32P]-Nicotinamide Adenine Dinucleotide, ^32P-NAD^+ at a final concentration of 10 μM. After incubation for 2 hour at room temperature, the reaction mixture was filtered and washed with 0.75% phosphoric acid for radioactivity detection. • ii. PARP2 assay: Human recombinant PARP2 at a final concentration of 2.5 nM was combined with histone H3 (20 μM) and test articles at various concentrations in reaction buffer (50 mM Tris-HCL, pH 8.0, 50 mM NaCl, 10 mM MgCl2, 1 mM DTT, 1% DMSO, and 20 μg/mL activated DNA). The solution was inoculated for 20 min at room temperature and the reaction was initiated by adding [adenylate-^32P]-Nicotinamide Adenine Dinucleotide, ^32P-NAD^+ at a final concentration of 10 μM. After incubation for 2 hour at room temperature, the reaction mixture was filtered and washed with 0.75% phosphoric acid for radioactivity detection. • b. AR binding assay: AR in LNCaP cytosol was used for determining the binding affinity of test articles and the reference compound—progesterone (Sigma, Cat: E2785, St. Louis, MO). IC50s were determined using 8 concentrations/compound. Cytosol was plated at 200 μg/well (100 μL) into a 96-well conical polypropylene plate (Agilent, Cat: 5042-1385, Santa Clara, CA) and mixed with 3 μL of test compound. After adding 100 μL of ^3H-methyltrienolone (PerkinElmer, Cat: NET590250UC, San Jose, CA), the plate was sealed and shaken at 300 rpm at 4° C. for 24 hours. Post incubation, 100 μL of radioligand adsorption buffer containing 10 mM Tris-HCl, pH 7.4; 1.5 mM EDTA; 1 mM DTT; 0.25% charcoal; 0.0025% dextran was added to individual well. Plate was shaken for 15 min at 4′C followed by centrifugation at 3000 rpm for 30 min at 4° C. 150 μL of supernatant was transferred into scint-tube (PerkinElmer, Cat: 6000192) and mixed with 2 mL of Ultima Gold Cocktail (PerkinElmer, Cat: 6013329). Radioactivity was counted using a TriCarb 2910 TR scintillation counter (PerkinElmer). Inhibition of the radioactivity by test articles were calculated using the equation below: % Inhibition=(1−(Assay well−Average_LC)/(Average_HC−Average_LC))×100%.

The target of a further assay is Human recombinant PARP2 (Homo sapiens, UniProt Q9UGN5). The assay is described as follows: RBC HotSpot PARP2 radioisotope-based filter binding assay. It counts as biochemical. The following applies: 2.5 nM enzyme, histone H3, 10 μM 32P-NAD+; read-out: PARP2 IC50. On the procedure:
as §1

The next assay concerns LNCaP cells. Description: Cell proliferation assay (CellTiter Glo), LNCaP. The assay is classed as cell-based. Particulars: Homo sapiens, 168 h, cell growth inhibition, six or seven days total treatment, read-out: LNCaP IC50. Here is the method:
(§2) IC50 values were calculated and graphed using the model “log(inhibitor) vs. response—Variable slope” included in GraphPad Prism 5 (San Diego, CA). The Ki values were further calculated using the equation below where [L] was the radioligand concentration (1 nM) using in this study. Kd value was 0.332 nM. Ki=IC50/(1+[L]/Kd) c. AR transactivation: Human AR cloned into a CMV vector backbone was used for the transactivation study. HEK-293 cells were plated at 80,000 cells per well of a 24 well plate in DME+5% csFBS. Twenty four hours later, the cells were transfected using Lipofectamine (Invitrogen, Carlsbad, CA) with 0.25 μg GRE-LUC, 0.01 μg CMV-LUC (renilla luciferase) and 25 ng of the AR in OPTIMEM medium. The cells were treated 24 hrs after transfection with various ligands (10^−12 to 10^−5 M final concentrations) and luciferase assay were performed 48 hours after transfection. Firefly values were normalized to renilla luciferase values and the values were represented as relative light units (RLU). Agonist and antagonist assays for the test article were performed in the absence and in the combination with 0.1 nM R1881, respectively. Data were represented as EC50 (for agonists) and IC50 (for antagonists) obtained from four parameter logistics curve. Cell culture and proliferation assays: LNCaP, PC-3, 22RV1, MCF-7, HT-29, and HCT-116 cells were procured from American Type Culture Collection (ATCC). Cells were cultured in medium recommended by the ATCC. Cell culture medium was obtained from Fisher scientific (Waltham, MA) and serum was obtained from Hyclone (San Angelo, TX).
Cells were plated at varying density in the respective growth medium in 96 well plates. 24 hr later, cells were treated, in triplicate or quadruplicate, with test articles prepared in a range of concentrations by series dilution of DMSO stock solutions in growth medium and incubated for three to seven days. The number of viable 22RV1 and HT-29 cells was measured using CellTiter Glo assay (CTG, Promega, Madison, WI) after three days of treatment. The other types of cancer cells were re-treated at three or four days and the number of viable cells was measured using CTG assay after a total treatment time of six or seven days. Cell viability data were plotted using GraphPad Prism (GraphPad Software, Inc., San Diego, CA). In addition, a nonlinear regression model with a sigmoidal dose response and variable slope within GraphPad Prism was used to calculate the IC50 value of individual test articles. Additional cell proliferation assays: Other cancer cell lines are tested in a cell proliferation assay. For example, SK-OV-3 or OVCAR3 ovarian cancer cells are tested. Cells are cultured in medium recommended by the supplier (e.g., ATCC or JCRB Cell Bank), at 37° C. in a 5% CO2 environment. For the proliferation assay, cells are plated in the growth medium in 96 well plates. Seeding density is adjusted according to the cell type. 24 hr later, cells are treated, in triplicate or quadruplicate, with test articles prepared in a range of concentrations by series dilution of DMSO stock solutions in growth medium, and typically incubated for three to seven days, with test article-containing medium replaced after three or four days. The number of viable cells is measured using CellTiter Glo assay (CTG, Promega, Madison, WI) or similar. Cell viability data are plotted using GraphPad Prism (GraphPad Software, Inc., San Diego, CA). […]
In general terms: ATP-based viability assays read luminescence as a measure of living cells.

A further assay relates to PC-3 cells. The assay is described as follows: Cell proliferation assay (CellTiter Glo), PC-3. The following applies: Homo sapiens, PC-3, 168 h; cell growth inhibition, six or seven days total treatment; read-out: PC-3 IC50. It counts as cell-based. On the procedure: as §2
(§3) Cells were plated at varying density in the respective growth medium in 96 well plates. 24 hr later, cells were treated, in triplicate or quadruplicate, with test articles prepared in a range of concentrations by series dilution of DMSO stock solutions in growth medium and incubated for three to seven days. The number of viable 22RV1 and HT-29 cells was measured using CellTiter Glo assay (CTG, Promega, Madison, WI) after three days of treatment. The other types of cancer cells were re-treated at three or four days and the number of viable cells was measured using CTG assay after a total treatment time of six or seven days. Cell viability data were plotted using GraphPad Prism (GraphPad Software, Inc., San Diego, CA). In addition, a nonlinear regression model with a sigmoidal dose response and variable slope within GraphPad Prism was used to calculate the IC50 value of individual test articles. Additional cell proliferation assays: Other cancer cell lines are tested in a cell proliferation assay. For example, SK-OV-3 or OVCAR3 ovarian cancer cells are tested. […] The number of viable cells is measured using CellTiter Glo assay (CTG, Promega, Madison, WI) or similar. […]

The next assay deals with HCT-116 cells. The assay is described as follows: Cell proliferation assay (CellTiter Glo), HCT-116. The assay is classed as cell-based. Particulars: Homo sapiens, HCT-116, 168 h; cell growth inhibition, six or seven days total treatment; read-out: HCT-116 IC50. On the procedure:
as §2, §3

A further assay deals with 22RV1 cells. The assay is described as follows: Cell proliferation assay (CellTiter Glo), 22RV1. The assay is classed as cell-based. Particulars: Homo sapiens, 22Rv1, 72 h; cell growth inhibition, three days of treatment; read-out: 22RV1 IC50. Here is the method: as §2
Cells were plated at varying density in the respective growth medium in 96 well plates. 24 hr later, cells were treated, in triplicate or quadruplicate, with test articles prepared in a range of concentrations by series dilution of DMSO stock solutions in growth medium and incubated for three to seven days. The number of viable 22RV1 and HT-29 cells was measured using CellTiter Glo assay (CTG, Promega, Madison, WI) after three days of treatment. The other types of cancer cells were re-treated at three or four days and the number of viable cells was measured using CTG assay after a total treatment time of six or seven days. Cell viability data were plotted using GraphPad Prism (GraphPad Software, Inc., San Diego, CA). In addition, a nonlinear regression model with a sigmoidal dose response and variable slope within GraphPad Prism was used to calculate the IC50 value of individual test articles. Additional cell proliferation assays: Other cancer cell lines are tested in a cell proliferation assay. For example, SK-OV-3 or OVCAR3 ovarian cancer cells are tested. Cells are cultured in medium recommended by the supplier (e.g., ATCC or JCRB Cell Bank), at 37° C. in a 5% CO2 environment. For the proliferation assay, cells are plated in the growth medium in 96 well plates. Seeding density is adjusted according to the cell type. 24 hr later, cells are treated, in triplicate or quadruplicate, with test articles prepared in a range of concentrations by series dilution of DMSO stock solutions in growth medium, and typically incubated for three to seven days, with test article-containing medium replaced after three or four days. The number of viable cells is measured using CellTiter Glo assay (CTG, Promega, Madison, WI) or similar. Cell viability data are plotted using GraphPad Prism (GraphPad Software, Inc., San Diego, CA). In addition, a nonlinear regression model with a sigmoidal dose response and variable slope within GraphPad Prism is used to calculate the IC50 value of individual test articles. Similarly, HEK-293 and HeLa calls can also be tested by methods known in the art. • f. Nuclear translocation: LNCaP cells are plated on coverslips in 24 well plates in growth medium. Twenty-four hours after plating, medium is changed to RPMI+1% csFBS and the cells are maintained in this medium for two days. Medium is replaced again and the cells are treated. […]

Chain of Human recombinant PARP2 (Q9UGN5 whole entry): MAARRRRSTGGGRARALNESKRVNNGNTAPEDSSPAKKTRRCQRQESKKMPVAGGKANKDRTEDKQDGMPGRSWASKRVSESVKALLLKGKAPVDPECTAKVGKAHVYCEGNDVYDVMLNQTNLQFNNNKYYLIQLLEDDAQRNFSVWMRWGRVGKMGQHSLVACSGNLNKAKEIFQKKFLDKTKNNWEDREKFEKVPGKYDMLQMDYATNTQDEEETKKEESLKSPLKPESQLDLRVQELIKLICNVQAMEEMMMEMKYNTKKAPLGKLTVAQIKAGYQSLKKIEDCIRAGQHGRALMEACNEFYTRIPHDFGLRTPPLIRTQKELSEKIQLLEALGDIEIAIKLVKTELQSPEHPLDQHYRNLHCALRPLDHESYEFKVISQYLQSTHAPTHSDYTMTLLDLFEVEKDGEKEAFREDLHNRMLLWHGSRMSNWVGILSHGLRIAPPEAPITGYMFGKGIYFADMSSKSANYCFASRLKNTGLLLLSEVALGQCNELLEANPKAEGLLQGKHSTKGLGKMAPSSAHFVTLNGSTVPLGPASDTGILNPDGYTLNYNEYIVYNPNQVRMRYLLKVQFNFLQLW
Chain of Human recombinant PARP1 (P09874 whole entry): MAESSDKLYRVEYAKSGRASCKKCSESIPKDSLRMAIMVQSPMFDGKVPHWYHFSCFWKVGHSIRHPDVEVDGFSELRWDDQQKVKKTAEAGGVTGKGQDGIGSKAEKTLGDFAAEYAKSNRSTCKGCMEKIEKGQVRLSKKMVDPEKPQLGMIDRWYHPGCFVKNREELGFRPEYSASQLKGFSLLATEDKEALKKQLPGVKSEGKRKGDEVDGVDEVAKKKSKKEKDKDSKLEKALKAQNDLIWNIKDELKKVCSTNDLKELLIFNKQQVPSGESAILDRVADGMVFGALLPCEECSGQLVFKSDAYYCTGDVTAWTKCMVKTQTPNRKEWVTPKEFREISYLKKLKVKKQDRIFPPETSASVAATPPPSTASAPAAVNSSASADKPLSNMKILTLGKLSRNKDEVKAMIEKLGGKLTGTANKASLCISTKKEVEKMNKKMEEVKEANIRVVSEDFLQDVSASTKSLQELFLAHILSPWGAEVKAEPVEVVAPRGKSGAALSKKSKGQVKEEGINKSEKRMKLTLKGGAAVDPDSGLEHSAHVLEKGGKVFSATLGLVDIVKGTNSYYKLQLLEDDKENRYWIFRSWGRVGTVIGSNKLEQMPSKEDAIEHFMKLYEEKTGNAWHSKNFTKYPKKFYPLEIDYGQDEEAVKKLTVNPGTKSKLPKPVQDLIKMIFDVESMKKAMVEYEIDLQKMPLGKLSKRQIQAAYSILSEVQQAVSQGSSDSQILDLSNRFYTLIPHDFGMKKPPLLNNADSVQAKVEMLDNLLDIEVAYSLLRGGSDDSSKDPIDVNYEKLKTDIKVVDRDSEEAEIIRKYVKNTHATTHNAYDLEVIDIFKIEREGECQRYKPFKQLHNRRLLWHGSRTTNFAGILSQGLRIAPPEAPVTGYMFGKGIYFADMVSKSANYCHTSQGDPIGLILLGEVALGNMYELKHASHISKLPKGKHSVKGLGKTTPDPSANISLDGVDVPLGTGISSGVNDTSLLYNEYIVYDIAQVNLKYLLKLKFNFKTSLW

By IC50 is commonly meant the concentration needed to halve the response being measured. On to `Cn1ncnc1[C@H]1c2n[nH]c(=O)c3cc(F)cc(c23)N[C@@H]1c1ccc(NC(=O)CCCCCNC(=O)c2ccc(N3C(=S)N(c4ccc(C#N)c(C(F)(F)F)c4)C(=O)C3(C)C)cc2F)cc1` [Compound 1.3, 4-(3-(4-cyano-3-(trifluoromethyl)phenyl)-5,5-dimethyl-4-oxo-2-thioxoimidazolidin-1-yl)-2-fluoro-N-(6-((4-((8S,9R)-5-fluoro-9-(1-methyl-1H-1,2,4-triazol-5-yl)-3-oxo-2,7,8,9-tetrahydro-3H-pyrido[4,3,2-de]phthalazin-8-yl)phenyl)amino)-6-oxohexyl)benzamide], for which the IC50 at Human recombinant PARP1 was 0.002 µM; at Human recombinant PARP2, 0.0005 µM; in the assay with LNCaP cells, 0.49 µM; in the assay with PC-3 cells it was 8.8 µM; in the assay with HCT-116 cells it was > 30 µM.

With `Cn1ncnc1[C@H]1c2n[nH]c(=O)c3cc(F)cc(c23)N[C@@H]1c1ccc(NC(=O)CCCCCO[C@H]2CC[C@H]3[C@@H]4CC[C@H]5CC(=O)CC[C@]5(C)[C@H]4CC[C@]23C)cc1` [Compound 1.4, 6-(((5S,8R,9S,10S,13S,14S,17S)-10,13-dimethyl-3-oxohexadecahydro-1H-cyclopenta[a]phenanthren-17-yl)oxy)-N-(4-(5-fluoro-9-(1-methyl-1H-1,2,4-triazol-5-yl)-3-oxo-2,7,8,9-tetrahydro-3H-pyrido[4,3,2-de]phthalazin-8-yl)phenyl)hexanamide], the IC50 at Human recombinant PARP1 was determined as 0.002 µM; at Human recombinant PARP2 it was 0.0004 µM; in the assay on LNCaP cells, 0.09 µM; in the assay on PC-3 cells, 0.02 µM; with HCT-116 cells it was 0.11 µM.

In the case of `C[C@](O)(CS(=O)(=O)c1ccc(OCCCCCCN2CCN(C(=O)c3cc(Cc4n[nH]c(=O)c5ccccc45)ccc3F)CC2)cc1)C(=O)Nc1ccc(C#N)c(C(F)(F)F)c1` [Compound 1.96, (R)-N-(4-cyano-3-(trifluoromethyl)phenyl)-3-(4-(6-(4-(2-fluoro-5-((4-oxo-3,4-dihydrophthalazin-1-yl)methyl)benzoyl)piperazin-1-yl)hexyloxy)phenylsulfonyl)-2-hydroxy-2-methylpropanamide], the IC50 on Human recombinant PARP1 was 0.006 µM; on Human recombinant PARP2 it was 0.0005 µM.

Turning to `C[C@]12CCCC[C@@H]1CC[C@@H]1[C@@H]2CC[C@]2(C)[C@@H](OCCCCCC(=O)N3CCN(C(=O)c4cc(Cc5n[nH]c(=O)c6ccccc56)ccc4F)CC3)CC[C@@H]12` [Compound 1.115], the IC50 was determined as 0.0257 µM on Human recombinant PARP1 and 0.0015 µM on Human recombinant PARP2.

On to `C[C@]12CC[C@@H]3c4ccc(O)cc4CC[C@H]3[C@@H]1CC[C@@H]2OCCCCCC(=O)N1CCN(C(=O)c2cc(Cc3n[nH]c(=O)c4ccccc34)ccc2F)CC1` [Compound 2.2, 4-(4-fluoro-3-(4-(6-((8R,9S,13S,14S,17S)-3-hydroxy-13-methyl-7,8,9,11,12,13,14,15,16,17-decahydro-6H-cyclopenta[a]phenanthren-17-yloxy)hexanoyl)piperazine-1-carbonyl)benzyl)phthalazin-1(2H)-one], for which the IC50 in the assay with 22RV1 cells turned out to be 0.39 µM.

Take `Cn1ncnc1[C@@H]1c2n[nH]c(=O)c3cc(F)cc(c23)N[C@H]1c1ccc(NC(=O)CCCCCNC(=O)c2ccc(N3C(=S)N(c4ccc(C#N)c(C(F)(F)F)c4)C(=O)C3(C)C)cc2F)cc1` [ent-1.3, 4-(3-(4-cyano-3-(trifluoromethyl)phenyl)-5,5-dimethyl-4-oxo-2-thioxoimidazolidin-1-yl)-2-fluoro-N-(6-((4-((8R,9S)-5-fluoro-9-(1-methyl-1H-1,2,4-triazol-5-yl)-3-oxo-2,7,8,9-tetrahydro-3H-pyrido[4,3,2-de]phthalazin-8-yl)phenyl)amino)-6-oxohexyl)benzamide]: the IC50 at Human recombinant PARP1 is 0.079 µM; at Human recombinant PARP2 it was 0.016 µM; in the assay with LNCaP cells it was > 100 µM.
